The test system of one test is RAW264.7. The experiment in a line: Inhibition of NO production in LPS stimulated mouse RAW264.7 cells by Griess reagent based analysis. Format: functional, cell-based.
A further test relates to Staphylococcus aureus. Put plainly: Antibacterial activity against methicillin-resistant Staphylococcus aureus assessed as inhibition of bacterial growth incubated for 24 hrs by broth microdilution assay. Format: functional, organism-based. In general terms: Dilution methods test growth across graded concentrations, often in twofold steps.
In test [1] the target is cGMP-specific 3',5'-cyclic phosphodiesterase (Homo sapiens, UniProt O76074). The experiment in a line: Inhibition of human recombinant PDE5A1 using FAM-cGMP as substrate incubated for 60 mins by fluorescence polarization method. Background: Polarisation of emitted light reports the rotation of a fluorescent probe.
For test [2], the target named is cGMP-inhibited 3',5'-cyclic phosphodiesterase 3A (Homo sapiens, UniProt Q14432). The experiment in a line: Inhibition of human recombinant PDE3A using FAM-cAMP as substrate incubated for 60 mins by fluorescence polarization method.
Test [3] has as its system A549. Put plainly: Cytotoxicity against human A549 cells by MTT assay. Format: functional, cell-based. A general note: Tetrazolium assays rely on reduction of a dye to a coloured formazan, in cell work by metabolically active cells.
The test system of another test is Bel-7402. Put plainly: Cytotoxicity against human Bel-7402 cells. The class given is functional, cell-based.
The next test concerns HeLa. The experiment in a line: Cytotoxicity against human HeLa cells. The class given is functional, cell-based.
For the next test, the system named is K562. Put plainly: Cytotoxicity against human K562 cells. Format: functional, cell-based.
Test [4] deals with A549. Put plainly: Cytotoxicity against human A549 cells. The class given is functional, cell-based.
A further test relates to SGC-7901. Put plainly: Cytotoxicity against human SGC-7901 cells. The class given is functional, cell-based.
Test [5] is described as follows: Antioxidant activity assessed as inhibition of DPPH radical scavenging activity by measuring reduction in absorbance at 100 uM by spectrophotometric analysis relative to control. The class given is functional.
The target of test [6] is Nuclear factor NF-kappa-B complex (Homo sapiens) (UniProt Q00653+P19838+Q04206). Put plainly: Inhibition of LPS induced NF-kappaB activation (unknown origin) assessed as relative luciferase activity. The class given is protein-complex assay.
The target in test [7] is T1, Acetylcholinesterase (Homo sapiens, UniProt P22303). The following applies: dose 50.0 mg/ml, time 1.0 hrs.
For test [8], the target named is T1, Acetylcholinesterase. Put plainly: Inhibition of AChE (unknown origin) by spectrophotometric based Ellman's method.
The next test has as its target Mushroom tyrosinase (Agaricus bisporus, UniProt O42713+Q00024+C7FF04+C7FF05). Put plainly: Inhibition of mushroom tyrosinase activity using L-tyrosine as substrate preincubated for 5 mins followed by substrate addition and measured after 20 mins by microplate reader analysis.

One may read the IC50 as the concentration needed to halve the response being measured. The term inhibition denotes the relative decrease from the control value, in per cent.

T1 sequence (P22303 whole entry): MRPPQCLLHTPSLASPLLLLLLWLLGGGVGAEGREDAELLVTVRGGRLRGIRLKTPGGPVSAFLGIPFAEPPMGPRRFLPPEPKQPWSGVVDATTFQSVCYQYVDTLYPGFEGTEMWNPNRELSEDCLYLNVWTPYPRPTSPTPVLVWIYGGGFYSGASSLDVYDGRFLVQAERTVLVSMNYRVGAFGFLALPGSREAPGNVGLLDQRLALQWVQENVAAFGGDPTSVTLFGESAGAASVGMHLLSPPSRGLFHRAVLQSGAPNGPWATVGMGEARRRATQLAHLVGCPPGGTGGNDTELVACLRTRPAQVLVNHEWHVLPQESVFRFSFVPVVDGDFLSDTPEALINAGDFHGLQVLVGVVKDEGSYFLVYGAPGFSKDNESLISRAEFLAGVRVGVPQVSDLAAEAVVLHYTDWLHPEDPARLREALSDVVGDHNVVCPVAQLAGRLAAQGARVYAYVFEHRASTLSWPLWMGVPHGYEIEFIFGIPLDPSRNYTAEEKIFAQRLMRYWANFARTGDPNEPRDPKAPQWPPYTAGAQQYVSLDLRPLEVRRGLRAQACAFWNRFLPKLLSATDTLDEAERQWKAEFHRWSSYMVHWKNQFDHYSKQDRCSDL
Sequence of Nuclear factor NF-kappa-B complex (Homo sapiens) (P19838 whole entry, looked up): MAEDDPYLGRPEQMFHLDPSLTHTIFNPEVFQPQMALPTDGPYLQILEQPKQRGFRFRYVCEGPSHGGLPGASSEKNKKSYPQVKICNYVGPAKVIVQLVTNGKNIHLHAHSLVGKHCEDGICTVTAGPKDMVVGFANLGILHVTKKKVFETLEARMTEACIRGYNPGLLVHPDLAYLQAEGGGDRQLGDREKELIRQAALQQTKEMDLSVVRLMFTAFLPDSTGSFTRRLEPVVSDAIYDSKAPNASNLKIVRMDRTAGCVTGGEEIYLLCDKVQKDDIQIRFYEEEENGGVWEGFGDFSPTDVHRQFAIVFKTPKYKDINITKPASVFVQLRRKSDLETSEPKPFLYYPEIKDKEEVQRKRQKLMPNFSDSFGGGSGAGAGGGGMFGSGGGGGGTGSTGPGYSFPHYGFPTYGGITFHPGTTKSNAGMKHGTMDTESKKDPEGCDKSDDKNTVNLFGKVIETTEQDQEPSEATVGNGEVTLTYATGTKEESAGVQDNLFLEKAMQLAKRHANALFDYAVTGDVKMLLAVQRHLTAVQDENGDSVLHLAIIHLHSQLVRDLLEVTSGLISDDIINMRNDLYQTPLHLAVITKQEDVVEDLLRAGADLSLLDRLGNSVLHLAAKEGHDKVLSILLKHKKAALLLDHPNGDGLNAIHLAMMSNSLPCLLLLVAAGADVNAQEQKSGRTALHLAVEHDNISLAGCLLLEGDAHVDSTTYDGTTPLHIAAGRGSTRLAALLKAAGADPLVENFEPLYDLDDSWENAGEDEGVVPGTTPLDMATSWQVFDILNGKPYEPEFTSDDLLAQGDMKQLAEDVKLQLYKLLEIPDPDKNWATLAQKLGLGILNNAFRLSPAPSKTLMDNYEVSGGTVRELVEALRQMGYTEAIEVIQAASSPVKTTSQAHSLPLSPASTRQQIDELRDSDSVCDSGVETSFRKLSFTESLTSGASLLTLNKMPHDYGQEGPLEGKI
Sequence of Nuclear factor NF-kappa-B complex (Homo sapiens) (Q00653 whole entry, looked up): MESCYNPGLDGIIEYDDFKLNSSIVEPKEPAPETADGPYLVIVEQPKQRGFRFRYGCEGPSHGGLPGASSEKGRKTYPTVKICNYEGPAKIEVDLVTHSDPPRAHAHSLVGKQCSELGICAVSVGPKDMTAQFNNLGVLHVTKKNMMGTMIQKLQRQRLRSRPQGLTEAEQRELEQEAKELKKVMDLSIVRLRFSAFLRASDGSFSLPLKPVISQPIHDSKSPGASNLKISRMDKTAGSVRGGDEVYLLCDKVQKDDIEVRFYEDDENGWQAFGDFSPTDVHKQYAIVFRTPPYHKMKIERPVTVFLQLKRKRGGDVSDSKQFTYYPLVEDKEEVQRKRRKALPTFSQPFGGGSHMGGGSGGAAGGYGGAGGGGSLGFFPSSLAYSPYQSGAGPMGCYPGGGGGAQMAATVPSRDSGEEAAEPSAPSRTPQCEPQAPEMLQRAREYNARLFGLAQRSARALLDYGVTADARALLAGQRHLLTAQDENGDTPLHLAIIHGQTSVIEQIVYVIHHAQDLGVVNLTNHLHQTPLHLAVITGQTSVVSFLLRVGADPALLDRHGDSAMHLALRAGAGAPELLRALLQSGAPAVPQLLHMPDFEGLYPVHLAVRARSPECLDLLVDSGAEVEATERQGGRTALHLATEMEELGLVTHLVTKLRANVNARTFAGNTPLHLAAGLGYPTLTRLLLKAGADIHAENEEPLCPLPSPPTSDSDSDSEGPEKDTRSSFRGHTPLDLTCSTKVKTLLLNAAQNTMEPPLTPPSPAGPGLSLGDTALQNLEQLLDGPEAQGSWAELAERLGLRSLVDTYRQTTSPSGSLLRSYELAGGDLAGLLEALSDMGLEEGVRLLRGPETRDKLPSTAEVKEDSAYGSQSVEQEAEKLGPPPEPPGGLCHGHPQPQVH
Sequence of Nuclear factor NF-kappa-B complex (Homo sapiens) (Q04206 whole entry, looked up): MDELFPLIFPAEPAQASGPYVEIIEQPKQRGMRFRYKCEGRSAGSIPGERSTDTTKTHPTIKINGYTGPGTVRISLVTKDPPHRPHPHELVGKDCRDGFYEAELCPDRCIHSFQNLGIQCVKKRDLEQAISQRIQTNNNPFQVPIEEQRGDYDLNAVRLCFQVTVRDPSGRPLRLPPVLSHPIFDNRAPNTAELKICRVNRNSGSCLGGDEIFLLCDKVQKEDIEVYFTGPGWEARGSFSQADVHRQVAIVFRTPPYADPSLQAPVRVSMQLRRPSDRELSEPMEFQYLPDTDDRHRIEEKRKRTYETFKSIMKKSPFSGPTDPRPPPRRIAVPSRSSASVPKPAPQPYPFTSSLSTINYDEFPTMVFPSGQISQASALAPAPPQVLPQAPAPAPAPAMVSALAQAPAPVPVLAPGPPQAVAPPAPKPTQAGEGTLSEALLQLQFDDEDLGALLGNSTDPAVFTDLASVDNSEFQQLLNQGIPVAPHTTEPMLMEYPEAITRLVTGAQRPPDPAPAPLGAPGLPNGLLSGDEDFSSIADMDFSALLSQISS
Sequence of cGMP-inhibited 3',5'-cyclic phosphodiesterase 3A (Q14432 whole entry): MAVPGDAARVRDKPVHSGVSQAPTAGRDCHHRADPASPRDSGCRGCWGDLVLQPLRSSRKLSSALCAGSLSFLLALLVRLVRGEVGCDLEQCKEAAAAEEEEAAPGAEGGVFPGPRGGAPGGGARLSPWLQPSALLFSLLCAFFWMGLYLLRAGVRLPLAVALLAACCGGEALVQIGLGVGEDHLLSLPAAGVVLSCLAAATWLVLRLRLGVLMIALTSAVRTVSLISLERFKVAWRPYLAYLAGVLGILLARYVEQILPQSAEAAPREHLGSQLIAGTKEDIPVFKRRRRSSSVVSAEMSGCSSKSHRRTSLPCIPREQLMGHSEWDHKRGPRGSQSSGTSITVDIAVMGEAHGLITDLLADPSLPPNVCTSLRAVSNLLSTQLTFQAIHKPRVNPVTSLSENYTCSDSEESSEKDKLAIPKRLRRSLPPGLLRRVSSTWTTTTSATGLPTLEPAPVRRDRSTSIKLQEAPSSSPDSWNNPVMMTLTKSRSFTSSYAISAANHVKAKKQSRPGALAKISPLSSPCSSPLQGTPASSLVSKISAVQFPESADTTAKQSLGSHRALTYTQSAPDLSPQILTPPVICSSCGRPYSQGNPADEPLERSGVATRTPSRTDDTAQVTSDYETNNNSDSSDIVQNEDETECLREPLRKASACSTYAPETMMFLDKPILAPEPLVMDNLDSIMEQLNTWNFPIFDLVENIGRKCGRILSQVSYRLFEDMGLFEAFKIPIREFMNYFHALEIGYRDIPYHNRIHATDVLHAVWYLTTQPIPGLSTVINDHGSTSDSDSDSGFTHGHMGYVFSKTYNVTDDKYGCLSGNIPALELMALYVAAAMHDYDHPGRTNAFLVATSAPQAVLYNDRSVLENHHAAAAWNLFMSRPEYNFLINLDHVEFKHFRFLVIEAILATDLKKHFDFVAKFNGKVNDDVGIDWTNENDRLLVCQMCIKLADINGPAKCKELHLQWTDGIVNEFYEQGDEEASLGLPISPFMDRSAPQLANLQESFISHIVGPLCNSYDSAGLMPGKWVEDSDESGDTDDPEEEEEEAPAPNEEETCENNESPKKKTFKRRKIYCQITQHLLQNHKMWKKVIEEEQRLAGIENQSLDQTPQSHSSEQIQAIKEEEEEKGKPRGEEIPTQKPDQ

In the test on RAW264.7, `O=c1cc(CCc2ccccc2)oc2c1[C@H](O)[C@H](O)[C@H](O)[C@H]2Cl` returned a concentration for half-maximal inhibition (IC50) of 1.6 µM.
With `COc1ccc(CCc2cc(=O)c3cc(OC)c(O)cc3o2)cc1`, the 50% inhibitory concentration (IC50) in the test with Staphylococcus aureus is 220 µM.
Regarding `O=C(CCc1ccccc1)O[C@@H]1c2oc(CCc3ccccc3)cc(=O)c2[C@H](O)[C@@H](O)[C@H]1O`, the figures for the IC50 in [1] and in test [2] were 15.1 µM and 42.6 µM, respectively.
In the test on RAW264.7, `COc1ccc(CCc2cc(=O)c3c(o2)[C@H](Cl)[C@@H](O)[C@@H](O)[C@H]3O)cc1` yielded an IC50 of 1.6 µM.
Molecule `C/C1=C\CC/C(C(=O)O[C@@H]2c3oc(CCc4ccccc4)cc(=O)c3[C@H](O)[C@@H](O)[C@H]2O)=C/CC(C)(C)/C=C/C1` showed an IC50 in the test with A549 [3] of 17.6 µM.
For the molecule `O=c1cc(CCc2ccccc2)oc2c1[C@H](O)[C@@H](O)[C@@H](O)[C@@H]2Oc1cc2oc(CCc3ccccc3)cc(=O)c2cc1O`, the IC50 in [1] turned out to be 4.2 µM.
For `COc1ccc(CCc2cc(=O)c3c(o2)[C@@H](O)[C@H](O)[C@@H]2O[C@H]32)cc1`, half-maximal inhibition with RAW264.7 (IC50) required 1.6 µM.
On to `COc1ccc(CCc2cc(=O)c3c(o2)[C@@H](Oc2cc(O)cc4c(=O)cc(CCc5ccccc5)oc24)[C@H](O)[C@H](O)[C@H]3O)cc1`, for which, in test [1], the half-maximal inhibitory concentration (IC50) was found to be 7.9 µM.
In the test on Bel-7402, `COc1ccc(CCc2cc(=O)c3c(o2)[C@H](O)[C@H]2Oc4cc5oc(CCc6ccc(OC)cc6)cc(=O)c5cc4O[C@@H]3[C@H]2O)cc1` returned an IC50 of 42.1 µM.
On to `C=C(CO[C@H]1c2c(oc(CCc3ccccc3)cc2=O)[C@H]2O[C@H]2[C@H]1O)[C@@H]1CC[C@@]2(O)CCCC[C@@]2(C)C1`, for which the concentration for half-maximal inhibition (IC50) in the test on HeLa, in the test with K562, with A549 [4] and in the test with SGC-7901 was 10.9 µM in each case.
As for `O=c1cc(CCc2ccccc2)oc2c1[C@H]1c3c(ccc4oc(CCc5ccccc5)cc(=O)c34)O[C@H]([C@H]1O)[C@@H]2O`, the half-inhibitory concentration (IC50) in the test with HeLa, in the test on K562, in the test with A549 [4] and in the test on SGC-7901 was 10.9 µM each time.
As to `O=c1cc(CCc2ccccc2)oc2c(O)ccc(O)c12`, the concentration for half-maximal inhibition (IC50) with Staphylococcus aureus turned out to be 220 µM; in the test with RAW264.7, 1.6 µM.
For the molecule `O=c1cc(CCc2ccc(O)c(O)c2)oc2cc(O)cc(O)c12`, the inhibition in test [5] was determined as 91.2%.
`C=C(CO[C@H]1c2c(oc(CCc3ccc(OC)cc3)cc2=O)[C@H]2O[C@H]2[C@H]1O)[C@@H]1CC[C@]2(C)CCC[C@H](C)[C@@]2(C)C1`: the IC50 with HeLa, in the test on K562, in the test on A549 [4] and in the test on SGC-7901 was 10.9 µM throughout.
As to `COc1cc2oc(CCc3ccccc3)cc(=O)c2cc1O`, the IC in test [6] was determined as 0.31 µM.
`COc1ccc(CCc2cc(=O)c3c(o2)[C@H](Cl)[C@H](O)[C@H](O)[C@@H]3O)cc1` yielded an IC50 in the test with RAW264.7 of 1.6 µM.
The molecule `COc1ccc(CCc2cc(=O)c3c(o2)[C@@H](O)[C@H](O)[C@H](O)[C@H]3OC)cc1` had an inhibition on Acetylcholinesterase [7] of 17.5%.
As to `COc1ccc(CCc2cc(=O)c3c(o2)[C@H]2O[C@H]2[C@@H](O)[C@H]3OC)cc1`, at Acetylcholinesterase [8], the IC50 was found to be 156 µM.
Regarding `COc1ccc(CCc2cc(=O)c3cc(O)cc(O)c3o2)cc1`, at Mushroom tyrosinase, the half-inhibitory concentration (IC50) amounted to 51.5 µM.
`C=C(C)[C@H]1CC[C@@]2(C)CCCC(C(=O)O[C@H]3c4oc(CCc5ccccc5)cc(=O)c4[C@@H](O)[C@H](O)[C@@H]3O)=C2C1` displayed a 50% inhibitory concentration (IC50) in the test on A549 [3] of 17.6 µM.
`COc1ccc(CCc2cc(=O)c3cc(O)c(OC)cc3o2)cc1O` yielded a half-inhibitory concentration (IC50) on Mushroom tyrosinase of 89 µM.
For the molecule `COc1ccc(CCc2cc(=O)c3cc(O)c(OC)cc3o2)cc1`, the IC50 in the test on Bel-7402, with K562 and with SGC-7901 was 5.76 µM in each case.
`CO[C@@H]1c2c(oc(CCc3ccccc3)cc2=O)[C@H](O)[C@@H](O)[C@H]1O` returned an inhibition against Acetylcholinesterase [7] of 17.5%.
Molecule `COc1ccc(CCc2cc(=O)c3c(o2)[C@H]2O[C@H]2[C@@H](O)[C@@H]3O)cc1O` returned an inhibition against Acetylcholinesterase [7] of 17.5%.
On the same count and under the same terms, then `COc1ccc(CCc2cc(=O)c3c(o2)[C@H]2O[C@H]2[C@@H](O)[C@@H]3O)cc1`, with 17.5%.
As for `O=c1cc(CCc2ccc(O)cc2)oc2cc(O)cc(O)c12`, the inhibition in test [5] is 56.1%.
`C=C(C)[C@H]1CC[C@@]2(C)CCC=C(C(=O)O[C@H]3c4oc(CCc5ccccc5)cc(=O)c4[C@@H](O)[C@H](O)[C@@H]3O)[C@H]2C1`: the IC50 in the test on A549 [3] was 17.6 µM.
`O=c1cc(CCc2ccccc2)oc2c1[C@H](O)[C@@H](O)[C@H]1O[C@@H]21`: the inhibition on Acetylcholinesterase [7] is 17.5%.
For the molecule `COc1ccc(CCc2cc(=O)c3cc(O)c(O)cc3o2)cc1`, the IC50 with Bel-7402, in the test on K562 and in the test on SGC-7901 was 5.76 µM in each case.
Consider `COc1cc(C[C@@H](O)c2cc(=O)c3c(O)cc(O)cc3o2)ccc1O`, for which the inhibition in [5] was determined as 56.1%.
Turning to `COc1ccc(CCc2cc(=O)c3c(O)c(O)ccc3o2)cc1O`, the IC in test [6] came out at 0.31 µM.
`CCCOC(=O)c1cc(O)c(O)c(O)c1`: the inhibition in test [5] is 97.4%.
As to `COc1ccc(CCc2cc(=O)c3cc(O)c(O[C@@H]4c5oc(CCc6ccccc6)cc(=O)c5[C@H](O)[C@@H](O)[C@H]4O)cc3o2)cc1`, the 50% inhibitory concentration (IC50) in [1] amounted to 4.3 µM.
With `COc1ccc2c(=O)cc(CCc3ccccc3)oc2c1`, the IC in [6] is 0.31 µM.
With `COc1ccc(CCc2cc(=O)c3cc(OC)c(OC)cc3o2)cc1`, the IC in test [6] is 0.31 µM.
At Acetylcholinesterase [8], `COc1ccc(CCc2cc(=O)c3c(o2)[C@H]2O[C@H]2[C@@H](O)[C@H]3OC)cc1O` yielded an IC50 of 442 µM.
On to `COc1ccc(CCc2cc(=O)c3c(O)ccc(OC)c3o2)cc1`, for which the 50% inhibitory concentration (IC50) with Staphylococcus aureus turned out to be 220 µM.
For `COc1ccc(CCc2cc(=O)c3c(o2)[C@@H]2O[C@@H]2[C@@H]2O[C@H]32)cc1O`, the inhibition on Acetylcholinesterase [7] came out at 17.5%.
As for `O=c1cc(CCc2ccc(O)cc2)oc2cc(OC3O[C@H](CO)[C@@H](O)[C@H](O)[C@H]3O)cc(O)c12` (stereo partly drawn), the inhibition in test [5] amounted to 56.1%.
As for `O=c1cc(CCc2ccccc2)oc2c(O)cc(O)cc12`, the IC50 with Staphylococcus aureus turned out to be 220 µM.
With `O=c1cc(CCc2ccccc2)oc2cc(O)c(O)cc12`, the 50% inhibitory concentration (IC50) with Bel-7402, in the test on K562 and in the test with SGC-7901 was 5.76 µM each time.
In the case of `COc1ccc(CCc2cc(=O)c3cc4c(cc3o2)O[C@H]2c3c(oc(CCc5ccccc5)cc3=O)[C@H](O)[C@@H](O4)[C@@H]2O)cc1`, in the test with Bel-7402, the IC50 turned out to be 44.7 µM.
With `O=c1cc(CCc2ccccc2)oc2c1[C@@H]1c3c(ccc4oc(CCc5ccccc5)cc(=O)c34)O[C@@H]([C@@H]1O)[C@H]2O`, the IC50 in the test with HeLa, with K562, with A549 [4] and with SGC-7901 was 10.9 µM throughout.

The values are drawn from ChEMBL document CHEMBL5126554, “Occurrence, synthesis and biological activity of 2-(2-phenyethyl)chromones” (Eur J Med Chem, 2022).
